Laboratory results published in ChEMBL document CHEMBL5223131, “A first-in-class clinical G-quadruplex-targeting drug. The bench-to-bedside translation of the fluoroquinolone QQ58 to CX-5461 (Pidnarulex)” (Bioorg Med Chem Lett, 2022).
Activity calls are given as the source filed them. No cut-off for these calls is given here.

What was measured:
[1] = target: T1, DNA topoisomerase II (Homo sapiens) (UniProt P11388+Q02880); assay: Inhibition of human Top2 assessed as decrease in intensity of decatenated DNA using catenated KDNA at 0.5 to 10 uM; type: protein assay; conditions: dose 0.5-10 µM
[2] = target: T1, DNA topoisomerase II (Homo sapiens); assay: Inhibition of human Top2 assessed as decrease in enzyme mediated DNA cleavage at site A at high concentration; type: protein assay
[3] = target: T1, DNA topoisomerase II (Homo sapiens); assay: Inhibition of human Top2 assessed as decrease in enzyme mediated DNA cleavage at site A at low concentration; type: protein assay
[4] = target: T1, DNA topoisomerase II (Homo sapiens); assay: Inhibition of human Top2 assessed as decrease in enzyme mediated DNA cleavage at site A at 0.5 to 10 uM; type: protein assay; conditions: dose 0.5-10 µM
[5] = target: DNA topoisomerase 2-alpha (Homo sapiens) (UniProt P11388); assay: Inhibition of human Top2 assessed as decrease in intensity of decatenated DNA using catenated KDNA at 2 to 50 uM; conditions: dose 2-50 µM
Chain of DNA topoisomerase 2-alpha (Homo sapiens) (P11388 whole entry): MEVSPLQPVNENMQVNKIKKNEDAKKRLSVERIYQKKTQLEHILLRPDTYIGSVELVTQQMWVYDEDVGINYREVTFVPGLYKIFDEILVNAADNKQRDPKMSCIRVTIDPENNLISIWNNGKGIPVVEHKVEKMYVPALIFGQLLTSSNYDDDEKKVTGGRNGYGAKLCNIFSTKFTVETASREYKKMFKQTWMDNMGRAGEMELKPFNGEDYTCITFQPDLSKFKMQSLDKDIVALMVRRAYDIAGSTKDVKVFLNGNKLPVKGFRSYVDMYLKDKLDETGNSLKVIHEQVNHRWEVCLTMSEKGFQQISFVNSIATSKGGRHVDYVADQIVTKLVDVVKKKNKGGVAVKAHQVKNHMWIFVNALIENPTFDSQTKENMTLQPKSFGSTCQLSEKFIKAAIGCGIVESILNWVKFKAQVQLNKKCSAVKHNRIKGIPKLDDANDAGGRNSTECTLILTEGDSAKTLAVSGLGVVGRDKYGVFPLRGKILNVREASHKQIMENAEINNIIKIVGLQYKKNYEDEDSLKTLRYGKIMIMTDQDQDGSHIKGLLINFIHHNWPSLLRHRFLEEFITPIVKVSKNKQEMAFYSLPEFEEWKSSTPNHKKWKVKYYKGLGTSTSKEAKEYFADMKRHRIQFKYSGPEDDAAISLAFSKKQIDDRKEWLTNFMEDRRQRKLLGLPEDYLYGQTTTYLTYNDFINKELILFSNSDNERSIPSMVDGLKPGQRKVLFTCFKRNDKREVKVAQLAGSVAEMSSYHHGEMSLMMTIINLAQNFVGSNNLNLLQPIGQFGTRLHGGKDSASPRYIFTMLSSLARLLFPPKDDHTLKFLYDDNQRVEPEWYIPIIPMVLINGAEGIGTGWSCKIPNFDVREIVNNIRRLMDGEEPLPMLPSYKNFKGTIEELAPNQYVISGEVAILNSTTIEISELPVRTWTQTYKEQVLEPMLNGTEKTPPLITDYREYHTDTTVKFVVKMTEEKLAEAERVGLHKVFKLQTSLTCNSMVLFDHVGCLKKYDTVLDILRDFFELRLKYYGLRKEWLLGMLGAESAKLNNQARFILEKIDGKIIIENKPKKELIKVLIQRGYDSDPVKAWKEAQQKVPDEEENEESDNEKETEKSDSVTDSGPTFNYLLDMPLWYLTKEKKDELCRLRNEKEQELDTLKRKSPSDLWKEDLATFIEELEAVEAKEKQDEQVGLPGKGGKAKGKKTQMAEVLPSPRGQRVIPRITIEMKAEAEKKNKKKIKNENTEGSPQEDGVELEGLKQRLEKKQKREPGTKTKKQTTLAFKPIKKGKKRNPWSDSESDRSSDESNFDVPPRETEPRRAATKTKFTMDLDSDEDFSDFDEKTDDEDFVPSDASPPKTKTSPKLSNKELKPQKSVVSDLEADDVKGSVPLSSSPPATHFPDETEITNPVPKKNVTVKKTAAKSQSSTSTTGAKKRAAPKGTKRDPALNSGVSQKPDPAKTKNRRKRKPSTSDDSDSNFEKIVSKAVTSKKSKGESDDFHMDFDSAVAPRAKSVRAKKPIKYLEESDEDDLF

N[C@H]1CCN(c2c(F)cc3c(=O)c(C(=O)O)cn4c3c2Oc2ccccc2-4)C1
Activity [1]: Active
Activity [2]: inactive
Activity [3]: Active

N[C@H]1CCN(c2c(F)cc3c(=O)c(C(=O)O)cn4c3c2Oc2cc3c(cc2-4)oc2ccccc23)C1
Activity [4]: Active
fold change (FC) [5]: 5
